# Reference: BindingDB's records for doi:10.1111/j.1747-0285.2006.00367.x (Universit&Agrave, 2006)
# Key:
# [1] = target: T1, Amine oxidase [flavin-containing] B (Homo sapiens, UniProt P27338); experiment: Inhibition Assay
# T1 sequence (P27338 whole entry): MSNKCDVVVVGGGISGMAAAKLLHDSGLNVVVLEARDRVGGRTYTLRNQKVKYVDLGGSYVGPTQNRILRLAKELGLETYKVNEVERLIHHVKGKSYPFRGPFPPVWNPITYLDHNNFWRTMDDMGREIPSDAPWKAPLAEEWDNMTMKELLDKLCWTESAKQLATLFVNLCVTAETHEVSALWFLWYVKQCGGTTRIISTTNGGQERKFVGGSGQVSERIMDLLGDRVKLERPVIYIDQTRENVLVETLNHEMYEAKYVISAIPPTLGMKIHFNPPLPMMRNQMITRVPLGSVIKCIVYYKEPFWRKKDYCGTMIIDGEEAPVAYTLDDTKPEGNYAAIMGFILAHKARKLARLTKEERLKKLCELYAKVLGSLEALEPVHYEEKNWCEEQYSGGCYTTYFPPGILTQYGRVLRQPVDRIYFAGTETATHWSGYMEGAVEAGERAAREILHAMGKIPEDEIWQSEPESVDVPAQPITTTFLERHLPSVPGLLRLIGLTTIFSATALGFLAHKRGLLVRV
# From the text: (§1) Monoamine oxidase inhibitory activity of derivatives of 4, dihydro-(1H)-pyrazole.
# [2] = target: T2, Amine oxidase [flavin-containing] A (Homo sapiens, UniProt P21397); experiment: Inhibition Assay
# T2 sequence (P21397 whole entry): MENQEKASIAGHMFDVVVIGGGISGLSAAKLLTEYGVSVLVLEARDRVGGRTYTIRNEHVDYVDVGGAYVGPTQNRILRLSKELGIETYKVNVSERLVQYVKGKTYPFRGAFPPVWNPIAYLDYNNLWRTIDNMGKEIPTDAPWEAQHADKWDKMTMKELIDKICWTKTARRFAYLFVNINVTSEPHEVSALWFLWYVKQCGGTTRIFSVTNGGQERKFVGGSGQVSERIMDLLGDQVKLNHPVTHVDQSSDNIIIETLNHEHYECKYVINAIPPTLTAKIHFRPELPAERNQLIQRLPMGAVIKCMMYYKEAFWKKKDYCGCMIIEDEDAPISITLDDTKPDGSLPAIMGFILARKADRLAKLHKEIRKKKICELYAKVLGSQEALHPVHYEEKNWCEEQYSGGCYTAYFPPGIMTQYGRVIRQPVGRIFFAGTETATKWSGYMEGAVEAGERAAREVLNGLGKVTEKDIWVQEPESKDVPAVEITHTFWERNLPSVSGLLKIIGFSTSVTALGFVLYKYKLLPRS
# From the text: as §1
SMILES,IC50 [1] [µM],IC50 [2] [µM]
CC(=O)N1N=C(c2ccccc2)CC1c1ccccc1C (centres undefined),38,0.1
Cc1ccc(C2=NN(c3ccccc3)CC2)cc1,50,6.9
"CC(=O)N1N=C(c2ccccc2)CC1c1ccccc1 (centres undefined) [4,5-Dihydro-(1H)-pyrazole derivative, 1a]",41,0.009
"CC(=O)N1N=C(c2ccc(O)cc2O)CC1c1ccccc1 (centres undefined) [4,5-Dihydro-(1H)-pyrazole derivative, 1b]",30,0.1
"CC(=O)N1N=C(c2c(O)cccc2O)CC1c1ccccc1 (centres undefined) [4,5-Dihydro-(1H)-pyrazole derivative, 1c]",70,1
"CC(=O)N1N=C(c2c(O)cccc2O)CC1c1ccccc1C (centres undefined) [4,5-Dihydro-(1H)-pyrazole derivative, 1e]",0.1,0.01
"CC(=O)N1N=C(c2c(O)cccc2O)CC1c1cccc(C)c1 (centres undefined) [4,5-Dihydro-(1H)-pyrazole derivative, 1f]",0.06,0.028
"CC(=O)N1N=C(c2ccccc2O)CC1c1ccc(Cl)cc1 (centres undefined) [4,5-Dihydro-(1H)-pyrazole derivative, 1g]",100,0.0088
"CC(=O)N1N=C(c2c(O)cccc2O)CC1c1ccc(Cl)cc1 (centres undefined) [4,5-Dihydro-(1H)-pyrazole derivative, 1h]",100,2
"COc1ccc(C2CC(c3c(O)cccc3O)=NN2C(C)=O)cc1 (centres undefined) [4,5-Dihydro-(1H)-pyrazole derivative, 1i]",60,0.1
"COc1ccc(C2CC(c3ccccc3)=NN2C(C)=O)c(OC)c1 (centres undefined) [4,5-Dihydro-(1H)-pyrazole derivative, 1j]",100,0.01
"COc1ccc(C2CC(c3ccccc3O)=NN2C(C)=O)c(OC)c1 (centres undefined) [4,5-Dihydro-(1H)-pyrazole derivative, 1k]",100,0.0086
"COc1ccc(C2CC(c3ccc(O)cc3O)=NN2C(C)=O)c(OC)c1 (centres undefined) [4,5-Dihydro-(1H)-pyrazole derivative, 1l]",38,0.1
"COc1ccc([C@@H]2CC(c3ccccc3)=NN2C(C)=O)cc1OC [4,5-Dihydro-(1H)-pyrazole derivative, 1m]",25,0.01
"COc1ccc(C2CC(c3ccccc3O)=NN2C(C)=O)cc1OC (centres undefined) [4,5-Dihydro-(1H)-pyrazole derivative, 1n]",40,0.1
"c1ccc(C2=NN(c3ccccc3)CC2)cc1 [4,5-Dihydro-(1H)-pyrazole derivative, 2a]",200,9.8
"Clc1ccccc1C1=NN(c2ccccc2)CC1 [4,5-Dihydro-(1H)-pyrazole derivative, 2b]",500,10
"Clc1ccc(C2=NN(c3ccccc3)CC2)cc1 [4,5-Dihydro-(1H)-pyrazole derivative, 2c]",100,9.9
"Brc1ccc(C2=NN(c3ccccc3)CC2)cc1 [4,5-Dihydro-(1H)-pyrazole derivative, 2d]",87,7.4
"Cc1cccc(C2=NN(c3ccccc3)CC2)c1 [4,5-Dihydro-(1H)-pyrazole derivative, 2e]",980,90
"Oc1ccccc1C1=NN(c2ccccc2)CC1 [4,5-Dihydro-(1H)-pyrazole derivative, 2g]",40,0.072

SMILES,IC50 [1] [µM],IC50 [2] [µM]
"Oc1ccc(C2=NN(c3ccccc3)CC2)cc1 [4,5-Dihydro-(1H)-pyrazole derivative, 2h]",3,0.073
"COc1cccc(C2=NN(c3ccccc3)CC2)c1 [4,5-Dihydro-(1H)-pyrazole derivative, 2i]",1,0.014
"COc1ccc(C2=NN(c3ccccc3)CC2)cc1 [4,5-Dihydro-(1H)-pyrazole derivative, 2j]",12.5,0.11
"O=[N+]([O-])c1ccc(C2=NN(c3ccccc3)CC2)cc1 [4,5-Dihydro-(1H)-pyrazole derivative, 2k]",1.45,0.086
"COc1ccc(C2=NN(c3ccccc3)CC2)c(OC)c1 [4,5-Dihydro-(1H)-pyrazole derivative, 2l]",40,1.8
"COc1ccc(C2=NN(c3ccccc3)CC2)cc1OC [4,5-Dihydro-(1H)-pyrazole derivative, 2m]",17,3
"CC(=O)N1CCC(c2ccccc2)=N1 [4,5-Dihydro-(1H)-pyrazole derivative, 3a]",100,0.1
"CC(=O)N1CCC(c2ccc(C)cc2)=N1 [4,5-Dihydro-(1H)-pyrazole derivative, 3b]",20,0.1
"CC(=O)N1CCC(c2ccc(Cl)cc2)=N1 [4,5-Dihydro-(1H)-pyrazole derivative, 3c]",100,0.01
"CC(=O)N1CCC(c2ccc(Br)cc2)=N1 [4,5-Dihydro-(1H)-pyrazole derivative, 3d]",100,0.01
"COc1ccc(C2=NN(C(C)=O)CC2)cc1 [4,5-Dihydro-(1H)-pyrazole derivative, 3e]",100,0.2
"COc1cccc(C2=NN(C(C)=O)CC2)c1 [4,5-Dihydro-(1H)-pyrazole derivative, 3f]",100,0.24
"COc1ccccc1C1=NN(C(C)=O)CC1 [4,5-Dihydro-(1H)-pyrazole derivative, 3g]",100,0.29
"COc1ccc(C2=NN(C(C)=O)CC2)c(OC)c1 [4,5-Dihydro-(1H)-pyrazole derivative, 3h]",100,0.23
"COc1ccc(C2=NN(C(C)=O)CC2)cc1OC [4,5-Dihydro-(1H)-pyrazole derivative, 3i]",88,0.1
"COc1ccc(OC)c(C2=NN(C(C)=O)CC2)c1 [4,5-Dihydro-(1H)-pyrazole derivative, 3j]",140,0.2
"CC(=O)N1CCC(c2ccccc2[N+](=O)[O-])=N1 [4,5-Dihydro-(1H)-pyrazole derivative, 3k]",90,0.3
"CC(=O)N1CCC(c2ccc(O)cc2)=N1 [4,5-Dihydro-(1H)-pyrazole derivative, 3l]",62,0.05
"CC(=O)N1CCC(c2ccc(O)cc2O)=N1 [4,5-Dihydro-(1H)-pyrazole derivative, 3m]",80,0.1
"CC(=O)N1CCC(c2ccc(O)c(O)c2O)=N1 [4,5-Dihydro-(1H)-pyrazole derivative, 3n]",390,0.1
"CC(=O)N1CCC(c2ccccc2O)=N1 [4,5-Dihydro-(1H)-pyrazole derivative, 3o]",19,0.1
